The target in assay [1] is Syk (356-635 amino acids) catalytic domain (Homo sapiens (Human), UniProt P43405). Put plainly: Inhibition of enzymatic Syk kinase activity (radiometric). The class given is biochemical. The conditions noted are these: read-out: IC50 Syk. An outline of the steps:
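Radiometric filter-binding format: 32P transfer from γ-32P-ATP onto pG4T, scintillation-counted after acid washes of P81 paper. Syk kinase domain (356-635), 0.035–7.5 ng per reaction, was exposed to compound for 30 minutes at room temperature before a 10-minute, 30° C. reaction with ATP (100 μM stock). Inhibition derived from counts with versus without compound.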

Another assay relates to RBL2H3 cells. Put plainly: Degranulation assay: β-hexosaminidase release during immune complex mediated degranulation. The class given is cell-based, rat. The conditions noted are these: Rattus norvegicus, RBL-2H3, Assay Protocol B (96 well format); for inhibition at 1 µM: read-out: Degranulation % inhibition at 1 μM; for EC50: read-out: Degranulation EC50. As to the method: The objective of this assay was to examine by Fluorescence method the effect of compounds on β-hexosaminidase release during immune complex mediated degranulation in RBL2H3 cells. Compounds were tested for their ability to inhibit the ability of this immune complex to mediate β-hexosaminidase release, in an enzyme assay with […] as substrate. […] Emission 460 nm). [table] [table] RBL2H3 cells were maintained in MEM complete media containing 10% FBS at 70%-80% confluence in a mammalian cell culture CO2 incubator with 5% CO2 at 37° C. 2×10^5 cells/well were plated in 1 mL of complete media and incubated for 5 hours for cell attachment. Complete media was replaced with 1 mL of serum free MEM media containing 1.2 μg/mL of anti-DNP rat IgE as sensitizing agent and further incubated overnight with 5% CO2 at 37° C. […] Cells were further stimulated with 5 μg/mL of DNP-BSA for 60 minutes. Plates were centrifuged for 5 minutes at 1000 rpm and 25 μL of culture supernatant was transferred from each assay well into a 96 well black coated plate. 25 μL β-NAG substrate was added to this mixture and incubated at room temperature for 30 minutes. The reaction was terminated with 100 μL of stop solution and fluorescence was monitored. (Excitation 355 nm; Emission 460 nm) See, Sanderson, (2010), Cellular Immunology, 262(1): 28-34 and Silverman, (2006) MCB, 26(5):1826-1838, which are incorporated herein by reference. The % release of β-Hexosaminidase for the test compound was calculated using the following formula: RBL2H3 cells were maintained in MEM complete media containing 10% FBS at 70-80% confluence in a mammalian cell culture CO2 incubator with 5% CO2 at 37° C. 5×10^4 cells/well were plated in 200 μL of complete media containing 0.3 μg/mL of anti-DNP rat IgE as sensitizing agent for 24 hours at 37° C. & 5% CO2. The following day, cells were washed twice with PIPES buffer for 10 minutes at 37° C. and replenished with serum free MEM media. Cells were treated with various concentrations of test compounds (in 0.5% DMSO) for 15 minutes at 37° C. and 5% CO2. The cells were further stimulated with 0.1 μg/mL of DNP-BSA for 45 minutes. The plates were spun for 5 minutes at 2000 rpm and 25 μL of culture supernatant was then transferred from each assay well into a 96 well black coated plate. […] β-NAG substrate was added and incubated at RT for 30 minutes. After incubation with substrate, 150 μL of stop solution was added and fluorescence was monitored. (Excitation 355 nm; Emission 460 nm). See, Yamamoto, JPET, 306(3):1174-1181 (2003) and Taylor, MCB, 15(8): 4149-4157 (1995), which are herein incorporated by reference. Release of β-hexosaminidase during the degranulation process by immune complex mediated FcεRI stimulation is through the SYK pathway. The % inhibition of β-hexosaminidase release by Syk inhibitor gives information with regard to its Syk inhibition potency.

The next assay has as its target JAK2 (Homo sapiens (Human), UniProt O60674). Put plainly: Inhibition of enzymatic JAK2 kinase activity (TR-FRET). The class given is biochemical. Particulars: read-out: IC50 JAK. A digest of the protocol: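 TR-FRET read-out (Eu antibody donor, Ulight poly Glu-Tyr acceptor, 665/615 nm ratio) after a 60 min RT kinase reaction with ATP, begun following 30 min compound–enzyme preincubation. Stopped by EDTA; inhibition expressed as 100 minus % activity of positive control.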

Where a name gives a salt, the structure may show the parent alone. Bounds are passed on as bounds.

JAK2, sequence (O60674 808-1132): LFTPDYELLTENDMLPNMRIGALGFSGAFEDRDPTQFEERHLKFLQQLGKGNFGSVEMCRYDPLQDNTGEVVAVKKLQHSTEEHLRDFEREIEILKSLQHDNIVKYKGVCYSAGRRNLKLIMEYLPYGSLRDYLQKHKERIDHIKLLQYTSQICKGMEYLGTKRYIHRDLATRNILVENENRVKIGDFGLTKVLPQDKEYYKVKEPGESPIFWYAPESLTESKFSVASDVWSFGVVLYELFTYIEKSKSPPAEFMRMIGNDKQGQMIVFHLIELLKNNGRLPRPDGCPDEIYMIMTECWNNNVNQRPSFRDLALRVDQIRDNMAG

With `CCN1CCN(c2ccc(Nc3nc(N4CCOCC4)nc4cn[nH]c(=O)c34)cc2)CC1` [Example 26, 4-(4-(4-ethylpiperazin-1-yl)phenylamino)-2-morpholinopyrimido[4,5-d]pyridazin-5(6H)-one], the half-inhibitory concentration (IC50) (usually the concentration at which inhibition is half-maximal) was under 10 nM in assay [1] and under 100 nM on JAK2. For the same molecule, the inhibition (as a rule, how much of the control response was suppressed) at 1 µM in the assay with RBL2H3 cells came out at 67%.
Regarding `O=c1[nH]ncc2nc(N3CCCCC3)nc(Nc3ccc(CN4CCNCC4)cc3)c12` [Example 30, 4-(4-(piperazin-1-ylmethyl)phenylamino)-2-(piperidin-1-yl)pyrimido[4,5-d]pyridazin-5(6H)-one hydrochloride], the IC50 (in assay [1]; at JAK2) was under 50 nM throughout. In addition, the inhibition at 1 µM in the assay with RBL2H3 cells stood at 99%.
Regarding `O=c1[nH]ncc2nc(-c3ccc4c(c3)OCO4)nc(Nc3ccc(CN4CCNCC4)cc3)c12` [Example 33, 2-(benzo[d][1,3]dioxol-5-yl)-4-(4-(piperazin-1-ylmethyl)phenylamino) pyrimido[4,5-d]pyridazin-5(6H)-one hydrochloride], the half-inhibitory concentration (IC50) in assay [1] was under 50 nM; on JAK2, over 100 nM. Also, the inhibition at 1 µM in the assay with RBL2H3 cells worked out at 58%.
As to `O=C(O)CC1CCN(c2ccc(Nc3nc(-c4ccccc4)nc4cn[nH]c(=O)c34)cc2)CC1` [Example 34, 2-(1-(4-(5-oxo-2-phenyl-5,6-dihydropyrimido[4,5-d]pyridazin-4-ylamino)phenyl)piperidin-4-yl)acetic acid], in assay [1], the IC50 was under 50 nM. Also, in the assay with RBL2H3 cells, the inhibition at 1 µM came to 80% and the concentration giving a half-maximal response (EC50) – broadly, the concentration giving half of the maximal effect – amounted to 378 nM. In addition, the concentration for half-maximal inhibition (IC50) at JAK2 is under 50 nM.
In the case of `O=C(O)C1CCN(Cc2ccc(Nc3nc(-c4ccccc4)nc4cn[nH]c(=O)c34)cc2)CC1` [Example 35, 1-(4-(5-oxo-2-phenyl-5,6-dihydropyrimido[4,5-d]pyridazin-4-ylamino)benzyl)piperidine-4-carboxylic acid], the 50% inhibitory concentration (IC50) (in assay [1]; at JAK2) was under 50 nM each time. For the same molecule, the inhibition at 1 µM with RBL2H3 cells worked out at 19%.
Consider `O=C(O)C1CC12CCN(c1ccc(Nc3nc(-c4ccsc4)nc4cn[nH]c(=O)c34)cc1)CC2` (stereo not drawn) [Example 39, 6-(4-(5-oxo-2-(thiophen-3-yl)-5,6-dihydropyrimido[4,5-d]pyridazin-4-ylamino)phenyl)-6-azaspiro[2.5]octane-1-carboxylic acid], for which the IC50 (in assay [1]; on JAK2) was under 50 nM throughout. Moreover, the inhibition at 1 µM with RBL2H3 cells was 100%.
Turning to `O=C(O)CC1CCN(c2nc(Nc3ccc(CN4CCNCC4)cc3)c3c(=O)[nH]ncc3n2)CC1` [Example 43, 2-(1-(5-oxo-4-((4-(piperazin-1-ylmethyl)phenyl)amino)-5,6-dihydropyrimido[4,5-d]pyridazin-2-yl)piperidin-4-yl)acetic acid hydrochloride], the values for the IC50 (in assay [1]; on JAK2) were under 50 nM and under 100 nM, respectively. Further, in the assay on RBL2H3 cells, the inhibition at 1 µM is 13%.
`COc1cccc(-c2nc(Nc3ccc(N4CCC5(CC4)CC5C(=O)O)cc3)c3c(=O)[nH]ncc3n2)c1` (stereo not drawn) [Example 47, 6-(4-((2-(3-methoxyphenyl)-5-oxo-5,6-dihydropyrimido[4,5-d]pyridazin-4-yl)amino)phenyl)-6-azaspiro[2.5]octane-1-carboxylic acid]: the half-maximal inhibitory concentration (IC50) in assay [1] is under 100 nM. In the assay on RBL2H3 cells, the inhibition at 1 µM is 100% and the concentration for a half-maximal effect (EC50) was 132 nM. Further, the half-maximal inhibitory concentration (IC50) on JAK2 is under 100 nM.
`O=c1[nH]ncc2nc(N3CCCC3)nc(Nc3ccc(CN4CCNCC4)cc3)c12` [Example 48, 4-((4-(piperazin-1-ylmethyl)phenyl)amino)-2-(pyrrolidin-1-yl)pyrimido[4,5-d]pyridazin-5(6H)-one hydrochloride]: the IC50 (in assay [1]; at JAK2) was under 100 nM in each case. For the same molecule, in the assay on RBL2H3 cells, the inhibition at 1 µM is 100%.
As for `CCOc1nc(Nc2ccc(CN3CCNCC3)cc2)c2c(=O)[nH]ncc2n1` [Example 50, 2-ethoxy-4-((4-(piperazin-1-ylmethyl)phenyl)amino)pyrimido[4,5-d]pyridazin-5(6H)-one hydrochloride], the concentration for half-maximal inhibition (IC50) in assay [1] was under 10 nM; at JAK2 it was over 100 nM. Further, the inhibition at 1 µM in the assay with RBL2H3 cells amounted to 49%.
Turning to `O=c1[nH]ncc2nc(N3CCCCCC3)nc(Nc3ccc(CN4CCNCC4)cc3)c12` [Example 52, 2-(azepan-1-yl)-4-((4-(piperazin-1-ylmethyl)phenyl)amino)pyrimido[4,5-d]pyridazin-5(6H)-one hydrochloride], the IC50 in assay [1] was under 10 nM. In the assay on RBL2H3 cells, the inhibition at 1 µM turned out to be 100% and the concentration for a half-maximal effect (EC50) came out at 1 nM. Also, on JAK2, the half-maximal inhibitory concentration (IC50) is under 10 nM.
`CC(C)N(c1nc(Nc2ccc(CN3CCNCC3)cc2)c2c(=O)[nH]ncc2n1)C(C)C` [Example 54, 2-(diisopropylamino)-4-((4-(piperazin-1-ylmethyl)phenyl)amino)pyrimido[4,5-d]pyridazin-5(6H)-one hydrochloride]: the IC50 in assay [1] was under 10 nM. Besides, in the assay with RBL2H3 cells, the inhibition at 1 µM is 100% and the EC50 was 13 nM. The IC50 at JAK2 was under 10 nM.
As for `O=c1[nH]ncc2nc(N3CCCCCC3)nc(Nc3ccc(N4CCOCC4)cc3)c12` [Example 60, 2-(azepan-1-yl)-4-((4-morpholinophenyl)amino)pyrimido[4,5-d]pyridazin-5(6H)-one], the half-maximal inhibitory concentration (IC50) (in assay [1]; at JAK2) was under 10 nM each time. Moreover, the inhibition at 1 µM in the assay on RBL2H3 cells came out at 100%. The concentration for a half-maximal effect (EC50) in the assay with RBL2H3 cells is 18 nM.
With `N#CCC1CCN(c2nc(Nc3ccc(N4CCC(CC(=O)O)CC4)cc3)c3c(=O)[nH]ncc3n2)CC1` [Example 71, 2-(1-(4-((2-(4-(cyanomethyl)piperidin-1-yl)-5-oxo-5,6-dihydropyrimido[4,5-d]pyridazin-4-yl)amino)phenyl)piperidin-4-yl)acetic acid], the IC50 in assay [1] was over 100 nM. Also, in the assay with RBL2H3 cells, the inhibition at 1 µM was determined as 65% and the EC50 was determined as 1020 nM. Besides, the 50% inhibitory concentration (IC50) on JAK2 is over 100 nM.
With `O=C(O)CC1CCN(c2ccc(Nc3nc(N4CCCCCCC4)nc4cn[nH]c(=O)c34)cc2)CC1` [Example 88, 2-(1-(4-((2-(azocan-1-yl)-5-oxo-5,6-dihydropyrimido[4,5-d]pyridazin-4-yl)amino)phenyl)piperidin-4-yl)acetic acid], the IC50 in assay [1] was under 10 nM. Also, in the assay on RBL2H3 cells, the inhibition at 1 µM is 100% and the EC50 was 76 nM. Further, the IC50 on JAK2 is under 10 nM.
For `O=C(O)CC1CCC(c2ccc(Nc3nc(N4CCCCCC4)nc4cn[nH]c(=O)c34)cc2)CC1` (stereo not drawn) [Example 91, 2-(4-(4-((2-(azepan-1-yl)-5-oxo-5,6-dihydropyrimido[4,5-d]pyridazin-4-yl)amino)phenyl)cyclohexyl)acetic acid], in assay [1], the IC50 was under 10 nM. Moreover, in the assay on RBL2H3 cells, the inhibition at 1 µM stood at 100% and the 50% effective concentration (EC50) was found to be 154 nM. In addition, the 50% inhibitory concentration (IC50) on JAK2 is under 50 nM.
On to `O=C(O)CCCOc1ccc(Nc2nc(N3CCCCCC3)nc3cn[nH]c(=O)c23)cc1` [Example 92, 4-(4-((2-(azepan-1-yl)-5-oxo-5,6-dihydropyrimido[4,5-d]pyridazin-4-yl)amino)phenoxy)butanoic acid], for which the half-inhibitory concentration (IC50) in assay [1] was under 10 nM. In the assay with RBL2H3 cells, the inhibition at 1 µM amounted to 100% and the half-maximal effective concentration (EC50) is 111 nM. Further, the IC50 on JAK2 was under 50 nM.
On to `O=c1[nH]ncc2nc(N3CCCCCC3)nc(Nc3ccc(OCCN4CCOCC4)cc3)c12` [Example 93, 2-(azepan-1-yl)-4-((4-(2-morpholinoethoxy)phenyl)amino) pyrimido[4,5-d]pyridazin-5(6H)-one], for which the IC50 (in assay [1]; at JAK2) was under 50 nM throughout. The inhibition at 1 µM in the assay on RBL2H3 cells worked out at 49%.

Values taken from US10183944B2 (Asana Biosciences, LLC, priority 2011, dated 2019).
